Source: the NIST ThermoML archive (doi:10.1021/je0301794)

Legend:
[1] = excess molar enthalpy (molar enthalpy of mixing); xn = mol fraction of the nth substance listed; details: 318.15 K, 101.3 kPa, Liquid
[2] = xn = mol fraction of the nth substance listed; details: 101.3 kPa, Liquid

CCCCCCCCCC [decane] + COC(=O)OC
[1]
Details | excess molar enthalpy [kcal/mol]
x2 = 0 | 0
x2 = 0.0948 | 0.19
x2 = 0.1964 | 0.341
x2 = 0.29 | 0.453
x2 = 0.3757 | 0.524
x2 = 0.4516 | 0.561
x2 = 0.5089 | 0.572
x2 = 0.5556 | 0.573
x2 = 0.5944 | 0.568
x2 = 0.6291 | 0.56
x2 = 0.6358 | 0.556
x2 = 0.6748 | 0.539
x2 = 0.7141 | 0.518
x2 = 0.7558 | 0.484
x2 = 0.7914 | 0.445
x2 = 0.8294 | 0.393
x2 = 0.8725 | 0.33
x2 = 0.9085 | 0.255
x2 = 0.9429 | 0.174
x2 = 0.9788 | 0.0741

[2]
Details | mass density [kg/m3]
298.15 K, x2 = 0 | 726.2
298.15 K, x2 = 0.0043 | 726.8
298.15 K, x2 = 0.0235 | 729.1
298.15 K, x2 = 0.0888 | 737.6
298.15 K, x2 = 0.1363 | 744.6
298.15 K, x2 = 0.1922 | 753.4
298.15 K, x2 = 0.2402 | 761.6
298.15 K, x2 = 0.3348 | 779.8
298.15 K, x2 = 0.4201 | 798.8
298.15 K, x2 = 0.4876 | 816
298.15 K, x2 = 0.5607 | 837.1
298.15 K, x2 = 0.6214 | 856.8
298.15 K, x2 = 0.6754 | 876.5
298.15 K, x2 = 0.7219 | 895.2
298.15 K, x2 = 0.7702 | 916.6
298.15 K, x2 = 0.8104 | 936.3
298.15 K, x2 = 0.8421 | 953.4
298.15 K, x2 = 0.8849 | 978.5
298.15 K, x2 = 0.9135 | 997
298.15 K, x2 = 0.9424 | 1017.3
298.15 K, x2 = 0.9709 | 1039
303.15 K, x2 = 0 | 722.3
303.15 K, x2 = 0.0489 | 728.4
303.15 K, x2 = 0.0996 | 735.2
303.15 K, x2 = 0.1998 | 750.3
303.15 K, x2 = 0.299 | 768.1
303.15 K, x2 = 0.3991 | 789.2
303.15 K, x2 = 0.4992 | 814.3
303.15 K, x2 = 0.6023 | 845.3
303.15 K, x2 = 0.7013 | 881.5
303.15 K, x2 = 0.8008 | 925.9
303.15 K, x2 = 0.9012 | 982.6
303.15 K, x2 = 0.9505 | 1016.6
313.15 K, x2 = 0 | 714.7
313.15 K, x2 = 0.0489 | 720.6
313.15 K, x2 = 0.0996 | 727.2
313.15 K, x2 = 0.1998 | 742
313.15 K, x2 = 0.299 | 759.4
313.15 K, x2 = 0.3991 | 780.1
313.15 K, x2 = 0.4992 | 804.7
313.15 K, x2 = 0.6023 | 835.2
313.15 K, x2 = 0.7013 | 870.6
313.15 K, x2 = 0.8008 | 914.4
313.15 K, x2 = 0.9012 | 970.3
313.15 K, x2 = 0.9505 | 1003.6
318.15 K, x2 = 0 | 710.9
318.15 K, x2 = 0.0902 | 722.1
318.15 K, x2 = 0.1142 | 725.4
318.15 K, x2 = 0.1922 | 736.9
318.15 K, x2 = 0.3283 | 760.8
318.15 K, x2 = 0.4184 | 780
318.15 K, x2 = 0.4855 | 796.3
318.15 K, x2 = 0.4962 | 799.1
318.15 K, x2 = 0.5666 | 818.8
318.15 K, x2 = 0.6142 | 833.9
318.15 K, x2 = 0.6732 | 854.3
318.15 K, x2 = 0.728 | 875.8
318.15 K, x2 = 0.7735 | 895.6
318.15 K, x2 = 0.8087 | 912.6
318.15 K, x2 = 0.8503 | 934.4
318.15 K, x2 = 0.8944 | 960.1
318.15 K, x2 = 0.9252 | 980
318.15 K, x2 = 0.9473 | 995.6
318.15 K, x2 = 0.9768 | 1017.9
